Assay results taken from patent US9018188B2, “MicroRNA inhibitors” (Ottawa Hospital Research Institute, priority 2011, dated 2015).

Tests used:
Type in all cases: in vivo, mouse
[1] = system: Ucp1; test: Induction of Ucp1 and brown adipocytes in TA muscle (RT-qPCR, immunoblot, immunofluorescence, IHC)
Text: To investigate miR-133 function in brown adipose determination of satellite cells in vivo, Applicant synthesized miR-133 antagomiR (miR-133 antisense oligonucleotide (ASO)) with an antisense sequence to both miR-133a and miR-133b, as well as a control “antagomiR” (control ASO) with the same chemical modifications and not antisense to any mouse gene or EST sequence (see Experimental Procedures). Applicant performed lineage tracing to distinguish effects of miR-133 ASO on satellite cells versus other cell types. Six week old Pax7-CreER; R26R-tdTomato mice were treated with tamoxifin as before (5 consecutive daily injections), then aged to 10 weeks of age prior to initiating the experiment. Control ASO versus miR-133 ASO were injected into tibialis anterior (TA) muscles 3 days following saline injection (quiescent state) or cardiotoxin injection (to induce activation). After one month, RT-qPCR was performed using RNA isolated from several tissues to evaluate the efficacy and scope of miR-133 ASO administration.
To investigate whether miR-133 ASO was inducing satellite cells to undergo brown adipose determination in vivo, Applicant performed immunofluorescence microscopy on cross-sections prepared from regenerating TA muscles treated with control- or miR-133 ASO (FIG. 4C-D) Staining for Ucp1 and basal lamina-located Laminin confirmed Ucp1 staining only within miR-133 ASO treated regenerating muscles. […] In addition, Applicant observed that these interstitial cells were immunoreactive to Perilipin A, a marker for differentiated adipocytes, and nuclear Prdm16 (FIG. 4D).
To induce brown adipocytes in vivo, 10 mg/mL Cardiotoxin solution (50 μl) was intramuscularly injected into TA muscles of 10-week old Pax7-CreER/R26R-tdTomato mice (FIG. 4) or C57BL/6 mice (FIG. 5 and FIG. 6). Alternatively, frozen injury was performed by applying liquid nitrogen cooled tweezers tips directly onto the anterior sides of TA muscles. After 3 days, 20 μg of miR-133 antagomiR or control antagomiR in saline (50 μl) was intramuscularly injected into the same injured TA muscles (on right hindlimbs). To test efficacy of miR-133 ASO in intact muscles, saline, instead of Cardiotoxin, was injected to TA muscles before miR-133 ASO administration (FIGS. 4A, 4B). miR-133 antagomiR and scramble antagomiR were designed as previously described (Krutzfeldt et al., 2005).
The following antibodies and dilutions were used: anti-MyHC antibody (MF20, Developmental Studies Hybridoma Bank), 1:20 dilution; anti-Prdm16 antibody (generated in Dr. Patrick Seale's laboratory), 1:1,000 dilution; anti-Perilipin A antibody (Vala Sciences), 1:500 dilution; anti-Ucp1 antibody (Calbiochem), 1:200 dilution; anti-Laminin B2 antibody (Upstate), 1:500 dilution.
The following antibodies and dilutions were used: anti-Prdm16 antibody (generated in Dr. Patrick Seale's laboratory), 1:5,000 dilution; anti-Perilipin A antibody (Vala Sciences), 1:5,000 dilution; anti-Ucp1 antibody (Ab10983, Abeam), 1:1,000 dilution (FIGS. 4B, 5A, 7A); anti-Ucp1 antibody (Calbiochem), 1:1,000 dilution (FIG. 8C); anti-Ucp3 antibody (Ab3477, Abeam), 1:1,000 dilution; anti-Pgc1α antibody (Abeam), 1:1,000 dilution; anti-pan myosin heavy chain (MyHC) antibody (Developmental Studies Hybridoma Bank), 1:500; anti-DsRed (tdTomato) antibody (Ablab), 1:500; anti-α-Tubulin antibody (Sigma-Aldrich), 1:10,000 dilution.
Paraffin embedded tissue sections of TA muscles, inguinal white fat depots (igWAT) and epididymal white fat depots (epiWAT) were deparaffinized in CitriSolv. After rehydration, tissue sections were boiled in 0.01M citrate buffer (1.8 mM citric acid, 8.2 mM sodium citrate, pH 6.0) for 16 minutes. Endogenous peroxidase activity was neutralized by 0.3% H2O2 in 70% methanol Anti-Ucp1 antibody (Calbiochem) was 1:200 diluted and incubated with tissues sections overnight. IHC signals were developed by Vectastain ABC kit. […]

[2] = system: TA muscles; test: [18F]-FDG PET imaging of treated TA muscles; conditions: after CL316,243-stimulated sympathetic activation; normalized to contralateral TA muscles; 2 months after treatment
Text: Metabolically active BAT has been identified in adult human by [^18F]-fluorodeoxyglucose positron emission tomography ([^18F]-FDG PET), due to dramatic glucose uptake by this tissue after sympathetic activation (Nedergaard et al., 2007). To visualize active brown adipose tissue within muscle, Applicant performed [^18F]-FDG PET imaging on control- or miR-133 ASO treated mice (n=5 for 133 ASO treated mice, n=4 for control treated muscle; 2 months after treatment) after acute sympathetic activation by selective β3-adrenergic receptor agonist, CL316,243 (FIG. 5E). Applicant observed a dramatic increase of FDG uptake in miR-133 ASO treated TA muscles compared to contralateral TA muscles or TA muscles within control ASO treated mice. To rule out possible direct and indirect effects of CL316,243 on glucose/FDG uptake by skeletal muscle cells, Applicant normalized FDG activities derived from ROIs of treated TA muscles to those of contralateral TA muscles (FIG. 5F). […] Such a drastic increase was not observed without the sympathetic activation preceding anesthesia (baseline).
Mouse PET imaging was performed with an Inveon PET scanner (Siemens Preclinical Solutions, Knoxyille, Tenn., USA). Control- or miR-133 ASO treated C57BL/6 male mice fed with regular diet were anesthetized under 2% isoflurane. […]

[3] = system: epididymal white fat depots and liver; test: H/E staining of fat depots and liver; conditions: mice fed the HFD
Text: This discrepancy may be related to the abnormally low respiratory exchange ratio (˜0.76) in the control mice fed with HFD (FIG. 7D), which indicates an increased proportion of lipid oxidation in the control mice. […] In addition, miR-133 ASO treatment also led to much improved glucose tolerance in both diet groups (FIGS. 6E & 7F).

[4] = regenerating TA muscle cross-sections

## *mA*mUmAmGmCmUmGmGmUmUmGmAmAmGmGmGmGmAmC*mC*mA*mA*mAChl [miR-133 ASO]
[1]; 3 months after a single injection in regenerating muscle
  repression of miR-133a/b and induction of Ucp1 mRNA, duration: long-lasting effects
[1]; C57BL/6 mice, regular diet or high fat diet, 2 months after treatment
  Ucp1 protein expression in treated muscles by immunoblotting: ectopically induced
[1]; cardiotoxin-injured TA muscle, one month
  Ucp1 mRNA within injected regenerating muscle: increased
[1]; frozen injury induced muscle regeneration
  Ucp1 mRNA level in treated TA muscle: similarly induced
[1]; regenerated TA muscles, Pax7-CreER, R26R-tdTomato mice
  Ucp1 protein by immunoblotting: specifically detected
[1]; regenerating TA muscle
  numbers of interstitial cells and ORO-stained cells between regenerating myofibers: markedly increased
[1]; [4]
  Prdm16pos cells per cross-section (average): 31.6 per cross-section
  Ucp1pos brown adipocytes per section (average): 15.6 per section
[1]; tdTomato lineage tracing
  share of Prdm16pos cells derived from satellite cells: 76.8%
  share of Ucp1pos brown adipocytes derived from satellite cells: 83.3%
[2]
  increase of glucose/FDG uptake compared to control: 1.3 fold
[3]
  infiltrating inflammatory cells in the epididymal white fat depots: reduced numbers
  steatosis of the liver: reduced steatosis
